Reference: patent EP4752137A1, “NEW COMPOUNDS DERIVED FROM MORIN, METHOD FOR OBTAINING THEM AND THEIR USES” (Universidad de Sevilla, priority 2023, dated 2025)

Tests used:
[1] = UV-vis absorption spectra (molar extinction coefficient); assay type: physicochemical; conditions: UV-vis 200-500 nm; improvement relative to morin
From the text: As experimental evidence of the improvement in the photoprotective capacity of compounds synthesized in Example 1, a comparison was made of the absorption capacity in the UV-vis range between morin and nitrogen derivatives (Schiff bases).
The tangible improvement with chemical modification for the compounds synthesized in Example 1 is evident by comparing the molar extinction coefficient (ε) values. […] In a further analysis, it can be seen that the εmax of morin oxime is 60% better than that of morin, and εmax of morin semicarbazone is 40% better than that of morin. […] Therefore, an improvement can be achieved in the optimization of active ingredients used in the preparation of compositions, the purpose of which is directed towards photoprotection and a photoabsorbent flavonoid is contemplated in said formulation.

[2] = Solubility of the isolated crystals; assay type: physicochemical; conditions: solvents in words
Description: For the preparation of morin oxime, 0.03 g of morin dissolved in 5 mL of MeOH were used, 0.0206 g of hydroxylamine hydrochloride and 0.0206 g of sodium acetate were added. The mixture was left under constant stirring and reflux for 2.5 hours. After this time, the crude product of the reaction was tempered and poured onto wet ice generating a precipitate, which was washed with dichloromethane and methanol obtaining a yellow solid in 60% yield. […] 6.45 dd (J = 8.5; 2.1 Hz). 6.39 d (J = 2.1 Hz). 6.34 d (J = 1.9 Hz). 6.16 d (J = 1.9 Hz). NMR of ^13C δ 102.9. 122.0. 122.0. 144.3. 149.1. 149.4. 152.8. 153.1. 154.7. 155.9. 84.5. 89.5. 95.5. 95.5. 99.5. UV (EtOH) λmax (log ε) 210 (4.6). 265 (4.2). 390 (4.4). The preparation of the compound can be carried out using the above-mentioned method with 0.1 g of morin, 0.07 g of hydroxylamine hydrochloride and 0.07 g of sodium acetate.
For the preparation of morin semicarbazone, 0.03 g of morin dissolved in 5 mL of MeOH was used, 0.0332 g of semicarbazide hydrochloride and 0.0332 g of sodium acetate were added. The mixture was left under constant stirring and reflux for 3 hours. After this time, the crude product of the reaction was tempered and poured onto wet ice generating a precipitate, which was recovered by filtration obtaining a coffee solid in 76% yield. […] 10.71 sa. 9.77 sa. 7.22 d (J= 8.4 Hz). 6.37 d (J= 2.4 Hz). 6.33 dd (J= 8.4; 2.4 Hz). 6.28 d (J= 1.9 Hz). […]

IL-6 (Interleukin-6) = assay: IL-6 production by ELISA in UVB-irradiated HaCaT keratinocytes; assay type: cell-based; conditions: for reduced IL-6 levels: 10 µM (highest concentration tested), 4 h pretreatment, UVB 50 mJ/cm^2, 24 h incubation
Description: For the evaluation of anti-inflammatory activity (Figure 2), HaCaT keratinocytes were pretreated for 4 h with the compounds morin (A), morin oxime obtained in Example 1 (B) and morin semicarbazone obtained in Example 1 (C) (2.5, 5 and 10 µM). They were then irradiated with UVB radiation at 50 mJ/cm^2, incubated for 24 h and IL-6 (Interleukin-6) production was assessed by ELISA. Results were expressed as pg/mL and bars represent ± SEM (n=5). […] Thus, it is worth noting that at the highest concentration tested (10 µM), morin oxime reduced IL-6 levels by 45% (Figure 2B) and morin semicarbazone by 28% (Figure 2C), compared to morin, with which a decrease of only 16% was observed (Figure 2A).
Finally, the combination of morin or the morin semicarbazone derivative from Example 1 with fucoxanthin induced a decrease in IL-6 production at all concentrations tested in a 1:1 proportion. It is worth mentioning that this reduction was more notable with the fucoxanthin+morin semicarbazone mixture at the 5-5 µM and 10-10 µM combinations (42% reduction) (Figure 6C) than with fucoxanthin+morin (38% reduction) (Figure 6B). […] The results were expressed as a percentage with respect to the irradiated control cells and the bars represented mean ± SEM (n = 4).

[3] = ABTS antioxidant capacity, Trolox curve as reference control; assay type: biochemical; conditions: ABTS technique
Description: First, the antioxidant capacity of the compounds was determined directly using the ABTS technique (2,2-azino-bis-3-benzo-thiazoline-6-sulfonic acid) at different concentrations of the compounds (morin and the compounds of Example 1), using as a reference control a curve of increasing concentrations of Trolox. […] Table 1. Antioxidant capacity of compounds

ROS = assay: Intracellular ROS (dichlorodihydrofluorescein-diacetate technique) in UVB-irradiated HaCaT cells; assay type: cell-based
Description: For the evaluation of the antioxidant activity of morin semicarbazone obtained in Example 1, HaCaT cells were pre-treated with morin and semicarbazone at the selected concentrations for 4 h and then irradiated with UVB radiation at 50 mJ/cm^2. After 45 min, ROS levels were measured using the dichlorodihydrofluorescein-diacetate technique. […] The results were expressed as a percentage with respect to the irradiated cell control and the bars represented mean ± SEM (n=4).
This decrease was slightly greater with the fucoxanthin+morin semicarbazone mixture at the 1.25-1.25 µM and 2.5-2.5 µM combinations (41% reduction) (Figure 5C) than with fucoxanthin+morin (33% and 37% reduction, respectively) (Figure 5B). […] The results were expressed as a percentage with respect to the irradiated control cells and the bars represented mean ± SEM (n = 4).

[4] = fucoxanthin alone, highest concentration tested

Compound | εmax better than that of morin [1] [%] | solubility [2] | reduced IL-6 levels (IL-6 (Interleukin-6)) [%] | EC50 [3] [µM] | Trolox equivalency (EC50 sample/EC 50 Trolox) [3] | reduced ROS production (ROS; 10 µM, 4 h pretreatment, UVB 50 mJ/cm^2, 45 min, vs irradiated cell control) | ROS levels (result in words) (ROS; all concentrations tested, 4 h pretreatment, UVB 50 mJ/cm^2, 45 min) | IL-6 production reduction (IL-6 (Interleukin-6); [4]) [%] | ROS reduction (ROS; [4]) [%]
ON=c1c(O)c(-c2ccc(O)cc2O)oc2cc(O)cc(O)c12 [Morin oxime, 2-(2,4-dihydroxyphenyl)-3,5,7-trihydroxy-4H-chromen-4-one oxime] | 60 | soluble in AcOEt, acetone, MeOH, and partially soluble in water | 45 | 13.7 ± 0.768 | 0.658 | – | – | – | –
NC(=O)NN=c1c(O)c(-c2ccc(O)cc2O)oc2cc(O)cc(O)c12 [Morin semicarbazone, 2-(2-(2,4-dihydroxyphenyl)-3,5,7-trihydroxy-4H-chromen-4-ylidene)hydrazine-1-carboxamide] | 40 | solubility in AcOEt, acetone, MeOH | 28 | 12.3 ± 0.922 | 0.590 | up to 20% | – | – | –
O=c1c(O)c(-c2ccc(O)cc2O)oc2cc(O)cc(O)c12 [Morin, 2-(2,4-dihydroxyphenyl)-3,5,7-trihydroxy-4H-chromen-4-one] | – | – | 16 | 10.8 ± 2.21 | 0.517 | – | failed to reduce ROS levels at any of the concentrations tested | – | –
Cc1c(C)c2c(c(C)c1O)CCC(C)(C(=O)O)O2 (stereo not shown) [Trolox, reference compound] | – | – | – | 20.8 ± 0.811 | 1 | – | – | – | –
fucoxanthin [reference compound] | – | – | – | – | – | – | – | 30 | 34
